# Data reported in the supplement of paper PMC11208160.
# Test: recombinant barcode read abundance after kanamycin selection (control-corrected) (log10(CPM+1)); higher = more efficient recombination; sequences stand for … in AGTGCAGAGAAAATCGGCCAGTTTTCTCTGCCTGCAGTCCGCATGCCGT…AGATTTATGCAGCGGACTGCCTTTCTCCCAAAGTGATAAACCGGACAGTATCATGGACCGGTTTTCCCGGTAATCCGTATTTGCAAGGTTGGTTTCACT; site = the 11-nt target
# Method in brief: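 This pooled E. coli screen matched targets with IS621 bridge RNA target-binding loops. Plating was done in duplicate on chloramphenicol/ampicillin LB agar as a control and on chloramphenicol/ampicillin/kanamycin plus 0.1 mM IPTG. Recombination efficiency reflects barcode counts at recombinant junctions as counts per million, averaged and control-corrected. The figures are log10(CPM+1).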
# 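Also: IS621 recombinase and bridge RNA in Escherichia coli cells.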
sequence,measurement,value
TCCCGAGCTTGGGTTCTAACCTGTTGCCT (site TCCCGACCTAG),recombinant barcode read abundance (log10),0
TCCCGAGCTTGGGTTCTAACCTGTTGCCT (site TCCCGAGCTAG),recombinant barcode read abundance (log10),1.55
TCCCGAGCTTGGGTTCTAACCTGTTGCCT (site TCCCGATCTAG),recombinant barcode read abundance (log10),0.119
TCCGAAACTTGGGTTCTAACCTGTTGCAT (site TCCGAAACTAT),recombinant barcode read abundance (log10),1.15
TCCGAAACTTGGGTTCTAACCTGTTGCAT (site TCTGAAACTAG),recombinant barcode read abundance (log10),0.0197
TCCGAGCCTTGGGTTCTAACCTGTTGCAT (site TCCGAGCCTAC),recombinant barcode read abundance (log10),0.228
TCCGAGCCTTGGGTTCTAACCTGTTGCAT (site TCCGAGCCTAT),recombinant barcode read abundance (log10),1.98
TCCGCTCCTTGGGTTCTAACCTGTTGCCT (site TCCGCTACTAG),recombinant barcode read abundance (log10),0.177
TCCGCTCCTTGGGTTCTAACCTGTTGCCT (site TCCGCTCCTAG),recombinant barcode read abundance (log10),0.323
TCCGCTCCTTGGGTTCTAACCTGTTGCCT (site TCCGCTGCTAG),recombinant barcode read abundance (log10),0.215
TCCGCTCCTTGGGTTCTAACCTGTTGCCT (site TCCGCTTCTAG),recombinant barcode read abundance (log10),0.0907
TCCGTACCTTGGGTTCTAACCTGTTGCCG (site TCCGTACCTCG),recombinant barcode read abundance (log10),0.814
TCCGTACCTTGGGTTCTAACCTGTTGCCG (site TCCGTCCCTCA),recombinant barcode read abundance (log10),0.0904
TCCGTCTCTTGGGTTCTAACCTGTTGCCA (site TCCGTCTCTCG),recombinant barcode read abundance (log10),0.233
TCCGTCTCTTGGGTTCTAACCTGTTGCCA (site TCCGTCTCTTG),recombinant barcode read abundance (log10),0.692
TCCGTCTCTTGGGTTCTAACCTGTTGCCG (site TCCGTCTCTCG),recombinant barcode read abundance (log10),1.13
TCCGTCTCTTGGGTTCTAACCTGTTGCCG (site TCCGTCTCTTG),recombinant barcode read abundance (log10),0.0281
TCCTAGTCTTGGGTTCTAACCTGTTGCCA (site GCCTAGTCTTG),recombinant barcode read abundance (log10),0.405
TCCTAGTCTTGGGTTCTAACCTGTTGCCA (site TCCTAGTCTTG),recombinant barcode read abundance (log10),0.137
TCCTTAGCTTGGGTTCTAACCTGTTGCCT (site TCATTCGCTAG),recombinant barcode read abundance (log10),0.0127
TCCTTAGCTTGGGTTCTAACCTGTTGCCT (site TCCTTAGCTAG),recombinant barcode read abundance (log10),0.579
TCGAAACCTTGGGTTCTAACCTGTTGCCT (site TCGAAACCTAG),recombinant barcode read abundance (log10),0.625
TCGAAACCTTGGGTTCTAACCTGTTGCCT (site TCGAACCCTAG),recombinant barcode read abundance (log10),0.0112
TCGAAACCTTGGGTTCTAACCTGTTGCCT (site TCGAAGCCTAG),recombinant barcode read abundance (log10),0.132
TCGAAACCTTGGGTTCTAACCTGTTGCCT (site TCGAATCCTAG),recombinant barcode read abundance (log10),0.0362
TCGAAGACTTGGGTTCTAACCTGTTGCCA (site CCGAAGACTAG),recombinant barcode read abundance (log10),0.14
TCGAAGACTTGGGTTCTAACCTGTTGCCA (site TCGAAGACTTG),recombinant barcode read abundance (log10),0.177
TCGAGTACTTGGGTTCTAACCTGTTGCCT (site TCGAGTACTAG),recombinant barcode read abundance (log10),0.274
TCGAGTACTTGGGTTCTAACCTGTTGCCT (site TCGAGTCCTAG),recombinant barcode read abundance (log10),0.168
TCGAGTACTTGGGTTCTAACCTGTTGCCT (site TCGAGTGCTAG),recombinant barcode read abundance (log10),0.034
TCGAGTACTTGGGTTCTAACCTGTTGCCT (site TCGAGTTCTAG),recombinant barcode read abundance (log10),0.404
TCGATGTCTTGGGTTCTAACCTGTTGCCT (site TCGAATTCTAG),recombinant barcode read abundance (log10),0.174
TCGATGTCTTGGGTTCTAACCTGTTGCCT (site TCGATGTCTAG),recombinant barcode read abundance (log10),0.706
TCGCAAGCTTGGGTTCTAACCTGTTGCCT (site TCGCAAGCTAG),recombinant barcode read abundance (log10),0.559
TCGCAAGCTTGGGTTCTAACCTGTTGCCT (site TCTCCAGCTAG),recombinant barcode read abundance (log10),0.43
TCGCACCCTTGGGTTCTAACCTGTTGCGA (site TCGAACCCTTC),recombinant barcode read abundance (log10),1.28
